The values below come from publication PMC2574866 (Drug metabolism and disposition: the biological fate of …, 2008).

The target in data set [1] is bovine serum albumin (BSA) / essentially fatty acid-free BSA (BSA-FAF) (Bos taurus, UniProt P02769).
Data set [2] has as its system sandwich-cultured rat hepatocytes. The conditions noted are these: for biliary excretion index (BEI), effect of BSA-FAF / unbound intrinsic biliary clearance (intrinsic Cl'biliary), effect of BSA-FAF: 4% (w/v) BSA-FAF vs no BSA or BSA.
The conditions of data set [3]: literature value, cited from earlier work.
[4] abbreviates: 4% (w/v) BSA vs no BSA, 10 min incubation.
[5] abbreviates: six long chain fatty acids added to BSA-FAF, n = 1 liver.
The mark [6] stands for this setting: addition of 1 mM Ca2+ (calcium chloride) to BSA-FAF, n = 1 liver.

Where two headings read alike, the source gives them in different places.

Sequence of bovine serum albumin (BSA) / essentially fatty acid-free BSA (BSA-FAF) (P02769 25-607): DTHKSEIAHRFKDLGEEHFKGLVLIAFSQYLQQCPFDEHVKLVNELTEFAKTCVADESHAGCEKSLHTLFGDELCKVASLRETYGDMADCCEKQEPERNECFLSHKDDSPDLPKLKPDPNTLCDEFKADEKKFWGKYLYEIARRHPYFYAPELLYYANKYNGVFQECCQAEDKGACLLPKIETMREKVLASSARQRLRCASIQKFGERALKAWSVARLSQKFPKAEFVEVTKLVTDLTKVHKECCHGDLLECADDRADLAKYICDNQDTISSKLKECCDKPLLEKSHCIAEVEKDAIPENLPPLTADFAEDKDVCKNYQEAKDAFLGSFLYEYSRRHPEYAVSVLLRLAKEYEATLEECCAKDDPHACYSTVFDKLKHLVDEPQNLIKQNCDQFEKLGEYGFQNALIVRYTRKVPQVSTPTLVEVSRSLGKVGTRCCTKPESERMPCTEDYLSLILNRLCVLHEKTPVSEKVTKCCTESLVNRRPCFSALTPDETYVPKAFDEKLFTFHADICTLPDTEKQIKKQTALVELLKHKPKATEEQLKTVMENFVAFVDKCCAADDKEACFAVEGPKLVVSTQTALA

With `C[C@H](CCC(=O)NCCS(=O)(=O)O)[C@H]1CC[C@H]2[C@@H]3[C@H](O)C[C@@H]4C[C@H](O)CC[C@]4(C)[C@H]3C[C@H](O)[C@]12C` [taurocholate], in data set [1], the “fu dependence on compound concentration” value is given as “concentration-independent” and the “fu in the presence of BSA compared to BSA-FAF” value (“fu … compared to BSA-FAF” below) is recorded as “significantly higher”. Also, the binding to albumin result in data set [1] (bovine) is given as “approximately 85%”. Moreover, the “unbound intrinsic biliary clearance (intrinsic Cl'biliary), effect of BSA” value in data set [2] (setting [4]) is “unaffected”. The “accumulation in sandwich-cultured rat hepatocytes” value in data set [2] (in the presence of BSA or BSA-FAF vs no BSA) is recorded as “notably decreased”. Also, in data set [3] (ref Forker and Luxon, 1981, Hung et al., 2005), the “unbound fraction (fu)” value is reported as ~ 0.15.

Turning to `CC[C@H](C)C(=O)O[C@H]1C[C@H](O)C=C2C=C[C@H](C)[C@H](CC[C@@H](O)C[C@@H](O)CC(=O)O)[C@H]21` [pravastatin], in data set [1], the “fu dependence on compound concentration” value is on record as “concentration-independent”; the “fu … compared to BSA-FAF” value was “significantly higher”; the “fu in the presence of BSA-FAF, effect of addition of long chain fatty acids” value is “unable to mitigate this effect”. Besides, the “unbound intrinsic biliary clearance (intrinsic Cl'biliary), effect of BSA” value in data set [2] (setting [4]) is recorded as “not significantly different”. In addition, in data set [2] (10 min incubation), the “biliary excretion index (BEI), effect of BSA-FAF” value was “significantly decreased” and the “unbound intrinsic biliary clearance (intrinsic Cl'biliary), effect of BSA-FAF” value is given as “significantly decreased”. In addition, in data set [2] (setting [5]), the “BEI in the presence of BSA-FAF, effect of addition of long chain fatty acids” value is “unable to mitigate this effect” and the “intrinsic Cl'biliary in the presence of BSA-FAF, effect of addition of long chain fatty acids” value is “unable to mitigate this effect”. Moreover, in data set [3] (ref Hatanaka, 2000), the “unbound fraction (fu)” value is recorded as ~ 0.5.

`C[C@H]1O[C@@H](O[C@H]2[C@@H](O)C[C@H](O[C@H]3[C@@H](O)C[C@H](O[C@H]4CC[C@@]5(C)[C@H](CC[C@@H]6[C@@H]5C[C@@H](O)[C@]5(C)[C@@H](C7=CC(=O)OC7)CC[C@]65O)C4)O[C@@H]3C)O[C@@H]2C)C[C@H](O)[C@@H]1O` [digoxin]: in data set [1], the “fu dependence on compound concentration” value is “concentration-independent” and the “fu … compared to BSA-FAF” value was “significantly higher”. Also, in data set [2] (setting [4]), the “biliary excretion index (BEI), effect of BSA” value is listed as “not altered” and the “unbound intrinsic biliary clearance (intrinsic Cl'biliary), effect of BSA” value is listed as “not altered”. In addition, in data set [2] (10 min incubation), the “biliary excretion index (BEI), effect of BSA-FAF” value was “significantly decreased” and the “unbound intrinsic biliary clearance (intrinsic Cl'biliary), effect of BSA-FAF” value was “significantly decreased”. Moreover, in data set [2] (setting [6]), the “BEI in the presence of BSA-FAF, effect of additional Ca2+” value was “unable to restore” and the “intrinsic Cl'biliary in the presence of BSA-FAF, effect of additional Ca2+” value is reported as “unable to restore”. Moreover, the “unbound fraction (fu)” value in data set [3] (ref Lacy et al., 2002) is given as ~ 0.7.
